Data from the METLIN SMRT retention time set (Domingo-Almenara et al. 2019).

Assay: gradient 5% acetonitrile 3 min, to 50% in 2 min, to 85% in 15 min, held 3 min, 100 µL/min
Settings: column: Zorbax Extend-C18 2.1 x 50 mm; eluents: water / acetonitrile, 0.1% formic acid
Procedure, shortened: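 Retention time was recorded from adduct peaks, which were picked computationally and each inspected manually. Pure standards ran in mixtures of ~100 molecules on HPLC coupled to a quadrupole time-of-flight mass spectrometer, in positive and negative ionization mode, through a Zorbax Extend-C18 column (2.1 × 50 mm, 1.8 μm) at 100 μL/min. Eluents were water and acetonitrile, each with 0.1% formic acid.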

Row | Compound | RP-LC retention time [s]
1 | O=C(Cc1nnc(-c2ccccc2)o1)NC1CCCC1 | 675
2 | Brc1ccc(-c2noc(Cc3nnc(-c4ccccc4)o3)n2)cc1 | 1110
3 | COc1ccc(C(O)CN2CCN(C3CCCCC3)CC2)cc1OC (stereo unspecified) | 541
4 | CNC(=O)CSc1nnc(N2CCN(C(=O)c3cc(-c4ccccc4)on3)CC2)s1 | 674
5 | CCCNC(=O)C1CCCN(c2ccc(SCC(=O)NCCc3ccc(Cl)cc3)nn2)C1 (stereo unspecified) | 676
6 | O=C(c1ccc(SCCN2CCCCC2)nc1)N1CCN(c2ncccn2)CC1 | 605
7 | CCCCN(CC)C(=O)c1cc2c(=O)oc3ccccc3c2n1C | 910
8 | CCc1nnc2ccc(NC(=O)Nc3cccc(F)c3)cn12 | 710
9 | CCOC(=O)c1noc2nc(C)nc(Nc3cccc(OC)c3)c12 | 801
10 | COc1ccc(C(=O)N2CC3CN(S(=O)(=O)c4ccc(OC)cc4)CC(C2)O3)cc1 | 769
11 | Cc1nn(-c2ccccc2)c(C)c1C=NN1CCN(Cc2ccccc2)CC1 | 739
12 | CC1CCN(c2cncnc2-n2cc(NC(=O)Cc3cccs3)cn2)CC1 | 740
13 | O=C(COc1ccc(F)cc1)Nc1cnc(-c2cccnc2)nc1 | 707
14 | COc1ccc(OC)c(S(=O)(=O)Cc2nc(-c3ccc(Cl)cc3)no2)c1 | 1030
15 | CCOC(=O)CNC(=O)C(c1ccccc1)n1cccc1 (stereo unspecified) | 784
16 | Cc1ccc(C2=NC3(CCN(C(=O)c4ccc5cc[nH]c5c4)CC3)ON2)cc1 | 755
17 | CC(C)n1cc(CN2CCC3(CC2)CN(Cc2ccccc2)CC3CO)cn1 (stereo unspecified) | 524
18 | Cc1c(C(=O)NC2CC2)cnn1-c1cc(-c2nc(C(C)C)no2)ccn1 | 940
19 | COc1ccccc1-c1noc(C2CCCN2C(=O)Nc2ccccc2Br)n1 (stereo unspecified) | 972
20 | COc1ccc(-c2ccc(=O)n(Cc3nc(-c4ccc(Br)cc4)no3)n2)cc1 | 1040
21 | COc1ccc(NC(=O)c2[nH]c3cc(C)sc3c2CN(C)C)cc1 | 666
22 | O=C(c1ccc2nsnc2c1)N(Cc1ccsc1)C1CC1 | 861
23 | Cc1ccc(-c2nc(C3CCN(S(=O)(=O)c4ccccc4F)CC3)no2)cc1 | 1170
24 | c1ccc(OCCSc2nc3ccccc3[nH]2)cc1 | 625

Row | Compound | RP-LC retention time [s]
25 | O=C(Nc1ccc(-c2nnc3n2CCCC3)cc1)c1ccc(Cl)cc1 | 724
26 | O=C(c1ccco1)N1CCC2(CC1)NC(=O)N(Cc1ccc(F)cc1)C2=O | 692
27 | Cn1cc(CC(=O)NCC2CCCCC2)c2cccnc21 | 734
28 | Cc1ccc(CSc2nc(CC(=O)NCc3nnc(C)o3)cs2)cc1 | 724
29 | COc1ccc(-c2noc(-c3nn(-c4cccc(F)c4)ccc3=O)n2)cc1OC | 804
30 | O=C(c1cnccn1)N1CCN(c2cc(-c3ccc(Cl)cc3)[nH]n2)CC1 | 722
31 | Cc1ccc(NC(=O)Cn2c(C)cc(-c3nnc(C4CCC4)o3)c2C)cc1C | 902
32 | CC1CCN(c2cc(-n3cnc(C(=O)N4CCN(c5ncccn5)CC4)c3)ncn2)CC1 | 880
33 | COC(=O)c1cccc(C(=O)N2CCN(c3cccc(C)c3C)CC2)n1 | 916
34 | CC(=O)N1C[C@@H](C(=O)NCCCc2c(C)noc2C)[C@H](c2nc(C)no2)C1 | 626
35 | Cc1ccc(NC(=O)Cn2cnc3nc(N4CCCC(C(=O)NC5CC5)C4)sc3c2=O)c(C)c1 (stereo unspecified) | 708
36 | CN(C)CCCNC(=O)c1ccc2c(c1)nc1n2CCN(C2CCCCC2)C1=O | 605
37 | Cc1ccccc1NC(=O)NCCn1c(C(F)(F)F)nc2cccnc21 | 736
38 | Cc1ccc2[nH]cc(CCN3CC(C(=O)NC4CCCCCCC4)CC3=O)c2c1 (stereo unspecified) | 907
39 | CC1CN=C2C=C(N3CCN(C(=O)Nc4ccccc4Cl)CC3)N=CN21 (stereo unspecified) | 618
40 | Cc1ccc(C(=O)N2CCC3(CC2)N=C(c2ccc(C)cc2)NO3)cc1 | 858
41 | COc1ccc(Nc2c(-c3ccc(N(C)C)cc3)nc3cnccn23)cc1OC | 687
42 | CCCNS(=O)(=O)c1cc(-c2cc(C(F)(F)F)on2)sc1C | 1090
43 | Cc1ccc(-n2c(=O)c3c(cc(C)n3C)n(CC(=O)Nc3cccc(C)c3)c2=O)cc1 | 905
44 | Cc1ccc(Nc2c(-c3ccccc3)nc3ccc(Cl)cn23)cc1 | 787
45 | C#CCOCC(O)CN1CCN(c2cc(Cl)ccc2C)CC1 (stereo unspecified) | 577
46 | Cc1ccc(CN2CCN(CC(=O)NCc3cccnc3)C(=O)C2=O)cc1 | 859
47 | O=C(c1cc(-c2cccnc2)n[nH]1)N1CCCC(C(=O)N2CCN(C(=O)c3ccco3)CC2)C1 (stereo unspecified) | 556
48 | O=C1COc2ccc(S(=O)(=O)N3CCCC3C(=O)NCc3ccccc3Cl)cc2N1 (stereo unspecified) | 784

Second part, the molecule after the results:

Row | RP-LC retention time [s] | Compound
49 | 569 | COc1ccccc1N1CCN(CCNC(=O)Nc2ccc3c(c2)OCO3)CC1
50 | 645 | Cc1cccn2cc(C(=O)NCc3cccc(F)c3)nc12
51 | 723 | Cc1nc(-c2csc(S(=O)(=O)N3CCC(C(=O)NC4CC4)CC3)c2)no1
52 | 836 | O=C(Cn1c(C(F)(F)F)nc2cc3c(cc21)OCCO3)Nc1ccc2c(c1)OCCCO2
53 | 1180 | O=C(COc1ccc2ccccc2c1)Nc1nc(-c2ccccc2)cs1
54 | 1190 | Cc1ccc(C)c(-c2nc(-c3ccc4c(c3)oc(=O)n4C(C)C)no2)c1
55 | 878 | Cn1c(=O)n(C)c2cc(S(=O)(=O)c3ccccc3)c(NC(=O)c3ccccc3F)cc21
56 | 644 | C=CC1=C(C(=O)O)N2C(=O)[C@@H](NC(=O)/C(=N/OCC(=O)O)c3csc(N)n3)[C@H]2SC1
57 | 670 | Cc1noc(C2CN(C(=O)NC(C)(C)C)CC23CCOCC3)n1 (stereo unspecified)
58 | 701 | N#Cc1cccc(C(=O)NC2CCN(c3cc(-c4cccs4)[nH]n3)C2)c1 (stereo unspecified)
59 | 945 | Cn1c(=O)c2cc(C(=O)NCc3cccc(C(F)(F)F)c3)nn2c2ccccc21
60 | 879 | O=C(C1CCCO1)N1CCC(CCOc2ccccc2F)CC1 (stereo unspecified)
61 | 1040 | CCCSCCCNC(=O)C1CCCN(c2nc3ccccc3n(CC)c2=O)C1 (stereo unspecified)
62 | 811 | O=C(Nc1cccc(OCc2nnc(-c3ccc(Cl)cc3)o2)c1)c1cccnc1
63 | 736 | CSc1nnc(-c2nn(C)c3c2CN(C(=O)c2ccc(Cl)cc2)CC3)n1C
64 | 642 | c1cc(-c2nc(-c3ccc4c(c3)nnn4CCN3CCCCC3)no2)co1
65 | 608 | CS(=O)(=O)N1CCN(C(=O)c2coc(NC(=O)c3ccccc3)n2)CC1
66 | 706 | Cc1cnc(C(=O)NCC2Cn3cccc3C(=O)N2CC(C)C)cn1 (stereo unspecified)
67 | 590 | CC1Cn2cc(C(=O)NCCN3CCN(C)CC3)c(=O)c3c(Cl)ccc(c32)O1 (stereo unspecified)
68 | 1020 | O=C(Cc1ccc(Cl)cc1)Nc1nc(-c2ccccc2)cs1
69 | 670 | COc1ccc2nc(C)cc(NCCCCCCCCCNc3cc(C)nc4ccc(OC)cc34)c2c1
70 | 1030 | COc1ccc(OC)c(S(=O)(=O)Cc2nc(-c3cccc(Br)c3)no2)c1

Row | RP-LC retention time [s] | Compound
71 | 765 | CC(C)(C)NC(=O)N1C[C@@H]2CN(S(=O)(=O)c3cccc(F)c3)C[C@H](C1)O2
72 | 772 | CC1CCN(c2cncnc2-n2cc(NC(=O)Nc3cccc(F)c3)cn2)CC1
73 | 1170 | CCOC(=O)c1ccc(NC(=O)c2cc(C(C)C)n3nccc3n2)cc1
74 | 810 | O=C(NCCC1=CCCCC1)c1cccn1-c1cccnc1
75 | 806 | COCCCNC(=O)c1ccc(-c2cnc(NC3CCCCC3)nc2)cc1
76 | 709 | CCC(=O)N1CCc2[nH]nc(C(=O)NCCCc3ccccc3)c2C1
77 | 1030 | COc1ccc(-c2csc(NC(=O)c3cc(OC)c(OC)c(OC)c3)n2)cc1
78 | 562 | Cc1cc(C)cc(N2C(=O)CC(N3CCC(C(N)=O)CC3)C2=O)c1 (stereo unspecified)
79 | 654 | Cc1ccc(S(=O)(=O)c2cnc(N3CCC(C(N)=O)(N4CCCCC4)CC3)nc2N)cc1C
80 | 1310 | CCn1c(C(=O)NCCC2=CCCCC2)cc2sc(Cl)cc21
81 | 927 | CSc1ccc(-c2nc3cnccn3c2Nc2ccc(F)cc2)cc1
82 | 1050 | CCOc1ccccc1CNC(=O)COc1nc(CC)nc2oc(C)c(C)c12
83 | 656 | Cc1nn2c(CNC(=O)c3ccc(Br)cc3)c(C)nc2s1
84 | 629 | Cc1cc(C(=O)NCC(C)C)n[nH]1
85 | 586 | Cn1c(CNC(=O)C2CCC2)nc2c1CN(S(=O)(=O)Cc1ccc(Cl)cc1)CC2
86 | 777 | Cc1c(C(=O)C(=O)NCC2COc3ccccc3O2)c2ccccc2n1C (stereo unspecified)
87 | 827 | CN(C(=O)c1cc2c(=O)n(C)c(=O)n(C)c2s1)c1cccc(Cl)c1
88 | 821 | COc1cccc(-n2ccn3cc(-c4ccc(F)cc4)nc3c2=O)c1
89 | 788 | O=C(CSc1nnc(-c2ccncc2)o1)N1CCCc2ccccc21
90 | 662 | CC(C)OCCCNC(=O)C1CCN(c2ncnc3c2oc2ccccc23)CC1
91 | 681 | CCCN1CCN(C(=O)c2cn(-c3ccc(-c4nc(C(C)(C)C)no4)cn3)cn2)CC1
